These results are taken from paper PMC2783692 (Analytical biochemistry, 2009).

The target in assay [1] is cannabinoid (CB1) receptor. Briefly: PWR ligand binding to native rat trigeminal ganglion membrane fragments. The following applies: Figure 4, negative spectral shifts.
The test system of a further assay is chromatophore membranes. Briefly: PWR ligand binding to deposited chromatophore membrane fragments. Details: species or system Rhodopseudomonas sphaeroides.
Assay [2] is described as follows: PWR ligand binding to bare sensor surface. The note with it: bare sensor versus chromatophore membrane fragments.

For the molecule `CCCCCCC(C)(C)c1ccc([C@@H]2C[C@H](O)CC[C@H]2CCCO)c(O)c1` [CP 55,940], the “KD values compared with radioligand binding and lipid bilayer PWR studies” value in assay [1] is recorded as “excellent agreement”.

As to `Cc1c(C(=O)c2cccc3ccccc23)c2cccc3c2n1[C@H](CN1CCOCC1)CO3` [WIN 55,212–2], the “KD values compared with radioligand binding and lipid bilayer PWR studies” value in assay [1] is reported as “excellent agreement”.

For “bovine serum albumin: control protein replacing cyt c2”, in the assay on chromatophore membranes (control protein replacing cyt c2, up to 100 μM protein), the “changes in PWR spectral position (binding)” value is listed as “did not observe any measurable changes”.

B1: cyt c2: Reduced Rhodobacter capsulatus cytochrome (cyt) c2, isolated and purified (protein, UniProt P00094 22-137, looked up)
Cytochrome c2: GDAAKGEKEFNKCKTCHSIIAPDGTEIVKGAKTGPNLYGVVGRTAGTYPEFKYKDSIVALGASGFAWTEEDIATYVKDPGAFLKEKLDDKKAKTGMAFKLAKGGEDVAAYLASVVK
modifications: reduced
Turning to B1, the “binding weaker on bare sensor than on chromatophore fragments” value in assay [2] is listed as “approximately 10 fold”. Also, the Kd at chromatophore membranes (read-out: apparent binding constant (KD), PWR, reduced cyt c2, hyperbolic fit, minimum of three separate experiments) came out at 2500 nM.
